Article PMC8666671, “Fine-tuning spermidine binding modes in the putrescine binding protein PotF” (The Journal of Biological Chemistry, 2021)
Substitutions are numbered along the chain they refer to. “And” between values parts separate entries of the source, which are not always exact repeats. Equal entries are not always repeated. Where two headings read alike, the source gives them in different places.

Legend:
PotF/D–E39D–F88L–S247D = molecular target: T1, PotF/D–E39D–F88L–S247D (Escherichia coli, UniProt P31133, A182D/F276W/F88L/L348Q/S38T/S87Y); assay: ITC, PotF/D–E39D–F88L–S247D; format: binding; conditions: 293 K; for n: ITC binding stoichiometry; for ΔG / ΔH / −TΔS / Kd: ITC; for Kd: 50 mM Tris pH 8, 300 mM NaCl, biological triplicates
T1 construct: without the N-terminal signal peptide; made in house; host or cells: E. coli BL21 (DE3)
T1 sequence (P31133 27-370 S38T/S87Y/F88L/A182D/F276W/L348Q): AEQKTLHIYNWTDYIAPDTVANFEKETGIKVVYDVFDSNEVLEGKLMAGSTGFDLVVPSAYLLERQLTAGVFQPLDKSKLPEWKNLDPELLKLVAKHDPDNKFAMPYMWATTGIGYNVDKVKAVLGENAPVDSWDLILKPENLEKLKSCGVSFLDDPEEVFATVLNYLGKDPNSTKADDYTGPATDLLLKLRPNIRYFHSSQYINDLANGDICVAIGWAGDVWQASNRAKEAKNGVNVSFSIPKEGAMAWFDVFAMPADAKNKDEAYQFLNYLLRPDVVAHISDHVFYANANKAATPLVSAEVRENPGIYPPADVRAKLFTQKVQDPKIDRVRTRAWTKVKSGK
Description: (§1) Ligands were always freshly prepared in the exact same buffer as was used for the size exclusion run. Samples were degassed, and temperature was equilibrated using a degassing station (TA Instruments). About 400 μl protein sample of different concentrations (Table S5) depending on affinity was transferred into the sample cell of a nanoITC (TA Instruments), and 50 μl of about tenfold concentrated ligand solution was loaded into the injection needle. Multiple injection measurements were carried out at 293 K, 300 rpm stirring rate, and 250 s spacings between each 2 μl injection. The heat quantity past injection was determined by integration of the measured peaks. Every protein–ligand combination was measured as biological triplicate. Subtraction of heat of dilution measurements, peak integration, and one site binding fits were done with NanoAnalyze (TA Instruments). Reported errors are the errors between fits of the measured triplicates.

PotF_Abox-A182D = molecular target: T2, PotF_Abox-A182D (Escherichia coli, UniProt P31133, A182D/F276W); assay: ITC, PotF_Abox-A182D (F276W, A182D); format: binding; conditions: for n: ITC binding stoichiometry; for n / Kd / ΔG / ΔH / −TΔS: 293 K, PotF_Abox-A182D; for Kd / ΔG / ΔH / −TΔS: ITC; for Kd: 50 mM Tris pH 8, 300 mM NaCl, biological triplicates
T2 construct: without the N-terminal signal peptide; made in house; host or cells: E. coli BL21 (DE3)
T2 sequence (P31133 27-370 A182D/F276W): T1 sequence (P31133 27-370 S38T/S87Y/F88L/A182D/F276W/L348Q) with T12S, Y61S, L62F, Q322L
Description: as §1

PotF_Abox = molecular target: T3, PotF_Abox (Escherichia coli, UniProt P31133, F276W); assay: ITC, PotF_Abox (F276W); format: binding; conditions: for n: ITC binding stoichiometry; for n / Kd / ΔG / ΔH / −TΔS: 293 K, PotF_Abox; for Kd: 50 mM Tris pH 8, 300 mM NaCl, biological triplicates
T3 construct: without the N-terminal signal peptide; made in house; host or cells: E. coli BL21 (DE3)
T3 sequence (P31133 27-370 F276W): T1 sequence (P31133 27-370 S38T/S87Y/F88L/A182D/F276W/L348Q) with T12S, Y61S, L62F, D156A, Q322L
Description: as §1

PotF_Abox_Dist = molecular target: T4, PotF_Abox_Dist (Escherichia coli, UniProt P31133, A182D/F276W/L348Q/S87Y); assay: ITC, PotF_Abox_Dist (S87Y, A182D, L348Q, F276W); format: binding; conditions: 293 K
T4 construct: without the N-terminal signal peptide; made in house; host or cells: E. coli BL21 (DE3)
T4 sequence (P31133 27-370 S87Y/A182D/F276W/L348Q): T1 sequence (P31133 27-370 S38T/S87Y/F88L/A182D/F276W/L348Q) with T12S, L62F
Description: as §1

PotF = molecular target: PotF; parameters: method as in PMID 33406388; conditions: PotF wildtype, cited from earlier work
PotF_Abox-L348Q = molecular target: T5, PotF_Abox-L348Q (Escherichia coli, UniProt P31133, F276W/L348Q); assay: ITC, PotF_Abox-L348Q (F276W, L348Q); format: binding; conditions: 293 K; for n: ITC binding stoichiometry; for ΔG / ΔH / −TΔS / Kd: ITC; for Kd: 50 mM Tris pH 8, 300 mM NaCl, biological triplicates
T5 construct: without the N-terminal signal peptide; made in house; host or cells: E. coli BL21 (DE3)
T5 sequence (P31133 27-370 F276W/L348Q): T1 sequence (P31133 27-370 S38T/S87Y/F88L/A182D/F276W/L348Q) with T12S, Y61S, L62F, D156A
Description: as §1

[1] = ITC, PotF_Abox compared with wildtype PotF
[2] = ITC, 50 mM Tris pH 8, 300 mM NaCl, biological triplicates

Compound NCCCCN [PUT, putrescine] has a n (PotF/D–E39D–F88L–S247D) of 0.90 ± 0.01, a ΔG (PotF/D–E39D–F88L–S247D) of -4.97 ± 0.13 kcal/mol and a ΔH (PotF/D–E39D–F88L–S247D) of -5.54 ± 0.73 kcal/mol. The “−TΔS” value (PotF/D–E39D–F88L–S247D) was 0.57 ± 0.86 kcal/mol, the Kd (PotF/D–E39D–F88L–S247D) was 203 ± 43.1 µM and the n (PotF_Abox-A182D) was 0.91 ± 0.01. For the same compound, the Kd (PotF_Abox-A182D) was ~83 µM and 83.2 µM, the ΔG (PotF_Abox-A182D) was -5.45 ± 0.02 kcal/mol and the ΔH (PotF_Abox-A182D) was -9.79 ± 0.09 kcal/mol. The “−TΔS” value (PotF_Abox-A182D) was 4.33 ± 0.08 kcal/mol, the “decrease of PUT affinity” value (PotF_Abox-A182D; PotF_Abox-A182D compared with wildtype PotF) was “around 1200 fold” and the n (PotF_Abox) was 0.90 ± 0.03. For the same compound, the Kd (PotF_Abox; ITC) was ~0.21 µM and 0.21 µM, the ΔG (PotF_Abox; ITC) was -8.97 ± 0.10 kcal/mol and the ΔH (PotF_Abox; ITC) was -22.25 ± 0.77 kcal/mol. For the same compound, the “−TΔS” value (PotF_Abox; ITC) was 13.28 ± 0.75 kcal/mol, the ΔΔH (PotF_Abox; [1]) was “+0.77 kcal/mol” and the KD (PotF_Abox_Dist; [2]) was “not detectable”. The Kd (PotF; ITC) was 0.07 ± 0.04 µM, the ΔG (PotF; ITC) was -9.74 ± 0.40 kcal/mol and the ΔH (PotF; ITC) was -23.02 ± 0.12 kcal/mol. The “−TΔS” value (PotF; ITC) was 13.28 ± 0.52 kcal/mol, the Kd (PotF) was roughly 0.068 µM and the n (PotF_Abox-L348Q) was 0.94 ± 0.03. The ΔG (PotF_Abox-L348Q) was -7.48 ± 0.02 kcal/mol, the ΔH (PotF_Abox-L348Q) was -14.22 ± 0.75 kcal/mol and the “−TΔS” value (PotF_Abox-L348Q) was 6.74 ± 0.74 kcal/mol. The Kd (PotF_Abox-L348Q) was ~3.3 µM and 2.66 µM.

In the case of NCCCCNCCCN [SPD, spermidine], the n (PotF/D–E39D–F88L–S247D) is reported as 0.93 ± 0.01, the ΔG (PotF/D–E39D–F88L–S247D) is reported as -7.35 ± 0.09 kcal/mol and the ΔH (PotF/D–E39D–F88L–S247D) is reported as -4.19 ± 0.06 kcal/mol. The “−TΔS” value (PotF/D–E39D–F88L–S247D) was -3.17 ± 0.10 kcal/mol, the Kd (PotF/D–E39D–F88L–S247D) was 3.33 ± 0.53 µM and the n (PotF_Abox-A182D) was 0.91 ± 0.02. The Kd (PotF_Abox-A182D) was ~3.1 µM and 3.13 µM, the ΔG (PotF_Abox-A182D) was -7.39 ± 0.11 kcal/mol and the ΔH (PotF_Abox-A182D) was -4.37 ± 0.20 kcal/mol. For the same compound, the “−TΔS” value (PotF_Abox-A182D) was -3.02 ± 0.15 kcal/mol, the n (PotF_Abox) was 0.96 ± 0.06 and the Kd (PotF_Abox; ITC) was ~11 µM and 11.1 µM. The ΔG (PotF_Abox; ITC) was -6.65 ± 0.04 kcal/mol, the ΔH (PotF_Abox; ITC) was -6.25 ± 0.16 kcal/mol and the “−TΔS” value (PotF_Abox; ITC) was -0.40 ± 0.21 kcal/mol. For the same compound, the “Δ(−TΔS)” value (PotF_Abox; [1]) was “+2.02 kcal/mol”, the n (PotF_Abox_Dist; ITC binding stoichiometry) was 0.94 ± 0.00 and the ΔG (PotF_Abox_Dist; ITC) was -6.85 ± 0.02 kcal/mol. For the same compound, the ΔH (PotF_Abox_Dist; ITC) was -5.28 ± 0.07 kcal/mol, the “−TΔS” value (PotF_Abox_Dist; ITC) was -1.57 ± 0.09 kcal/mol and the Kd (PotF_Abox_Dist; [2]) was ~7.8 µM and 7.8 µM and 7.77 µM. The Kd (PotF; ITC) was 29.7 ± 1.15 µM, the ΔG (PotF; ITC) was -6.07 ± 0.02 kcal/mol and the ΔH (PotF; ITC) was -3.65 ± 0.06 kcal/mol. The “−TΔS” value (PotF; ITC) was -2.42 ± 0.04 kcal/mol, the n (PotF_Abox-L348Q) was 0.98 ± 0.01 and the ΔG (PotF_Abox-L348Q) was -7.83 ± 0.68 kcal/mol. The ΔH (PotF_Abox-L348Q) was -7.72 ± 0.03 kcal/mol, the “−TΔS” value (PotF_Abox-L348Q) was -0.11 ± 0.69 kcal/mol and the Kd (PotF_Abox-L348Q) was ~2.6 µM and 3.26 µM.
